Laboratory results: patent US20110245283A1, “Methods for predicting the response to statins” (priority 2009, published 2011)
Like-named read-outs stand apart in the source and are kept apart here.

Key:
LDL [1] = settings: second study named in the background; any dose adjustment or change; cited from earlier work
LDL [2] = settings: cited from earlier work
LDL [3] = assay: Proportion of CAD patients attaining LDL goal (<100 mg/dl) on a statin dose; validation sets stratified by predicted probability; settings: for Proportion of patients achieving goal: validation set
LDL [4] = assay: Logistic regression models of attaining LDL goal: odds ratios for concurrent or prior drug doses; format: in vivo, patients
Protocol: G. Covariates for the multivariate model—The following list includes the predictors one or more of which may be tested in the multivariate models. • 1. AGE: (expressed in units of 10 years) at time that the new statin prescription was released • 2. GENDER, E. G., MALE: 1=yes, 0=no • 3. BMI (kg/M^2): last value before release date • 4. HBA1C (hemoglobin Alc): last value before release date • 5. PLDL: preceding LDL level expressed in e.g. 10 mg/dl units • 6. Statins • a. PLOVA: prior daily dose of lovastatin expressed in e.g. 10 mg units • b. […] For additional drugs: • a. AMIODOSE: amiodarone dose in mg/day • b. CARBDOSE: carbemazepine dose in mg/day • c. PIOGDOSE: pioglitazone dose expressed as number of 15 mg doses per day • d. […] METFDOSE: metformin dose expressed as number of 1000 mg doses per day • f. PHENDOSE: phenyloin dose in mg/day • g. RISPDOSE: risperidone dose in mg/day • h. ROSIDOSE: rosiglitazone dose in mg/day • i.
Body mass index (BMI) was chosen as a covariate of statin response because obese patients tend to consume a diet high in cholesterol. It was hypothesized that they would respond less well to statins because their hypercholesterolemia was more likely to be mediated by dietary indiscretion than excessive LDL synthesis. […] Metformin and the thiazolidinediones were chosen because they reduce LDL levels in diabetic patients through mechanisms that may or may not be affected by concurrent statin treatment. The remaining non-statin drugs were chosen because they are commonly used drugs that potentiate the effect of statins. They were selected by reviewing the official on-line VA pharmaceutical reference (Micromedex®) for major interactions mediated by impaired statin metabolism. […] The daily dose of the non-statin drug was calculated by the method described in Section B.
H. Assembling the predictor file—The patient identifier was used to link the new statin prescription type and dose, the preceding LDL above goal, and the type and dose of the previous statin (if any) with the patient's most recent HbA1c, most recent BMI, and the daily doses of 9 drugs with major statin interactions that were active at the time the new prescription was released.
The dependent variable was attainment of goal (LDL <100 mg/dl). […] Step selections were based upon the maximal likelihood method with α<0.15 to enter and ≧0.15 to remove.

## CC[C@H](C)C(=O)O[C@H]1C[C@@H](C)C=C2C=C[C@H](C)[C@H](CC[C@@H]3C[C@@H](O)CC(=O)O3)[C@H]21 [Lovastatin, lovastatin]
LDL [1]
  Success of dose adjustment (reaching LDL goal): ≤ 50%
LDL [2]; Dose 20 mg
  Average LDL reduction: 29%
LDL [2]; Dose 40 mg
  Average LDL reduction: 31%
LDL [2]; Dose 80 mg
  Average LDL reduction: 40-48%
LDL [3]; Lovastatin 10 mg model, Overall
  Proportion of patients achieving goal: 36.8%
LDL [3]; Lovastatin 10 mg model, predicted probability 0-19%
  Proportion of patients achieving goal: 10.9%
LDL [3]; Lovastatin 10 mg model, predicted probability 20-39%
  Proportion of patients achieving goal: 31.3%
LDL [3]; Lovastatin 10 mg model, predicted probability 40-59%
  Proportion of patients achieving goal: 46.8%
LDL [3]; Lovastatin 10 mg model, predicted probability 60-79%
  Proportion of patients achieving goal: 73.3%
LDL [3]; Lovastatin 20 mg [A] model, Overall
  Proportion of patients achieving goal: 49.2%
LDL [3]; Lovastatin 20 mg [A] model, predicted probability 0-19%
  Proportion of patients achieving goal: 15.0%
LDL [3]; Lovastatin 20 mg [A] model, predicted probability 20-39%
  Proportion of patients achieving goal: 25.8%
LDL [3]; Lovastatin 20 mg [A] model, predicted probability 40-59%
  Proportion of patients achieving goal: 55.1%
LDL [3]; Lovastatin 20 mg [A] model, predicted probability 60-79%
  Proportion of patients achieving goal: 73.0%
LDL [3]; Lovastatin 20 mg [A] model, predicted probability 80-100%
  Proportion of patients achieving goal: 71.4%
LDL [3]; Lovastatin 20 mg [B] model, Overall
  Proportion of patients achieving goal: 49.3%
LDL [3]; Lovastatin 20 mg [B] model, predicted probability 0-19%
  Proportion of patients achieving goal: 12.7%
LDL [3]; Lovastatin 20 mg [B] model, predicted probability 20-39%
  Proportion of patients achieving goal: 33.0%
LDL [3]; Lovastatin 20 mg [B] model, predicted probability 40-59%
  Proportion of patients achieving goal: 53.6%
LDL [3]; Lovastatin 20 mg [B] model, predicted probability 60-79%
  Proportion of patients achieving goal: 75.0%
LDL [3]; Lovastatin 20 mg [B] model, predicted probability 80-100%
  Proportion of patients achieving goal: 64.7%
LDL [3]; Lovastatin 40 mg model, Overall
  Proportion of patients achieving goal: 49.3%
LDL [3]; Lovastatin 40 mg model, predicted probability 0-19%
  Proportion of patients achieving goal: 11.1%
LDL [3]; Lovastatin 40 mg model, predicted probability 20-39%
  Proportion of patients achieving goal: 31.2%
LDL [3]; Lovastatin 40 mg model, predicted probability 40-59%
  Proportion of patients achieving goal: 50.7%
LDL [3]; Lovastatin 40 mg model, predicted probability 60-79%
  Proportion of patients achieving goal: 70.7%
LDL [3]; Lovastatin 40 mg model, predicted probability 80-100%
  Proportion of patients achieving goal: 100%
LDL [3]; Model 1, lovastatin 10 mg, Overall
  Proportion of patients achieving goal: 36.8%
LDL [3]; Model 1, lovastatin 10 mg, predicted probability 0-19%
  Proportion of patients achieving goal: 10.9%
LDL [3]; Model 1, lovastatin 10 mg, predicted probability 20-39%
  Proportion of patients achieving goal: 31.3%
LDL [3]; Model 1, lovastatin 10 mg, predicted probability 40-59%
  Proportion of patients achieving goal: 46.8%
LDL [3]; Model 1, lovastatin 10 mg, predicted probability 60-79%
  Proportion of patients achieving goal: 73.3%
LDL [3]; Model 1, lovastatin 20 mg, Overall
  Proportion of patients achieving goal: 47.4%
LDL [3]; Model 1, lovastatin 20 mg, predicted probability 0-19%
  Proportion of patients achieving goal: 8.5%
LDL [3]; Model 1, lovastatin 20 mg, predicted probability 20-39%
  Proportion of patients achieving goal: 29.0%
LDL [3]; Model 1, lovastatin 20 mg, predicted probability 40-59%
  Proportion of patients achieving goal: 54.4%
LDL [3]; Model 1, lovastatin 20 mg, predicted probability 60-79%
  Proportion of patients achieving goal: 74.6%
LDL [3]; Model 1, lovastatin 40 mg, Overall
  Proportion of patients achieving goal: 49.3%
LDL [3]; Model 1, lovastatin 40 mg, predicted probability 0-19%
  Proportion of patients achieving goal: 11.1%
LDL [3]; Model 1, lovastatin 40 mg, predicted probability 20-39%
  Proportion of patients achieving goal: 33.3%
LDL [3]; Model 1, lovastatin 40 mg, predicted probability 40-59%
  Proportion of patients achieving goal: 49.1%
LDL [3]; Model 1, lovastatin 40 mg, predicted probability 60-79%
  Proportion of patients achieving goal: 73.2%
LDL [3]; this study, all doses
  Chance of success (reaching goal) of any dose choice: ≤ 50%
LDL [4]; odds of goal LDL <100 mg/dl, Lovastatin 20 mg [A] model (includes HbA1c; n = 595), per dose increment
  OR: 0.768
LDL [4]; odds of goal, Lovastatin 20 mg [B] model (excludes HbA1c; n = 733), per dose increment
  OR: 0.542
LDL [4]; odds of goal, Lovastatin 40 mg model (n = 764), per dose increment
  OR: 0.768
LDL [4]; odds of goal, Lovastatin 80 model (n = 309), per dose increment
  OR: 0.868
LDL [4]; odds of goal, Model 1, Lovastatin 20 mg, per 10 mg/day
  OR: 0.593
LDL [4]; odds of goal, Model 1, Lovastatin 40 mg, per 10 mg/day
  OR: 0.770
LDL [4]; odds of goal, Model 1, Lovastatin 80 mg, per 10 mg/day
  OR: 0.868
LDL [4]; odds of goal, Model 1, Simvastatin 10 mg, per 10 mg/day
  OR: 0.434
LDL [4]; odds of goal, Model 1, Simvastatin 20 mg, per 10 mg/day
  OR: 0.615
LDL [4]; odds of goal, Model 1, Simvastatin 40 mg, per 10 mg/day
  OR: 0.928
LDL [4]; odds of goal, Model 1, Simvastatin 80 mg, per 10 mg/day
  OR: 1.04
LDL [4]; odds of goal, Simvastatin 10 mg [B] model (includes BMI; n = 136), per dose increment
  OR: 0.341
LDL [4]; odds of goal, Simvastatin 10 mg [C] model (excludes BMI; n = 219), per dose increment
  OR: 0.382
LDL [4]; odds of goal, Simvastatin 20 mg model (n = 374), per dose increment
  OR: 0.617
LDL [4]; odds of goal, Simvastatin 40 mg model (n = 698), per dose increment
  OR: 0.921
